Legend:
Format in all cases: biochemical
[1] = molecular target: T1, cloned human mu opioid receptor (Homo sapiens, UniProt P35372); test: GTP-γ-S binding assay (SPA), antagonist mode, mu; conditions: functional antagonist potency; membranes with cloned human mu receptor; agonist DAMGO 1 micromolar; Cheng-Prusoff
T1 construct: expressed in transfected cells
Description: (§1) The functional antagonist potency (Kb) of the sample compounds was determined using the GTPγS binding assay. GTPgS—based functional assays provide an in vitro measure of the activity of opioid agonists and antagonists. Opioid reference compounds or test compound are incubated with membrane homogenate from cells expressing the cloned human mu, kappa or delta opioid receptor and radiolabeled [35S]GTPgS. If the compound activates the opioid receptor, an increase in the binding of radiolabeled GTPgS is observed. […] These tests provide an in vitro measurement of the activity of the compound at human opioid receptors.
(§2) An SPA-based GTP-γ-S assay format was developed based on previous opioid (Emmerson et al., J. Pharm Exp Ther 278,1121,1996; Horng et al., Society for Neuroscience Abstracts, 434.6, 2000) and muscarinic (DeLapp et al., JPET 289, 946, 1999) assay formats. Membranes were resuspended in 20 mM HEPES, 100 mM NaCl, 5 mM MgCl2, 1 mM DTT, and 1 mM EDTA. Fifty (50) […] of GTP-γ-[35S], compound, membrane suspension (20 microgram/well), and wheat germ agglutinin coated SPA beads (1 mg/well) were added to clear bottom 96 well assay plates. GDP ([…]) was added to the membrane solution prior to addition to the assay plates. Plates were sealed and incubated for four hours at room temperature then placed in a refrigerator overnight to allow the beads to settle. Signal stability at 4° C. was determined to be >60 hours. Plates were warmed to room temperature and counted in a Wallac Microbeta scintillation counter. For antagonist assays, specific agonists were added at the following concentrations: (MOR) DAMGO 1 micromolar, (DOR) DPDPE 30 nM, (KOR) U69593 300 nM. Kb's were determined by Cheng-Prusoff equation (see Cheng and Prusoff, Biochem. Pharmacol. 22, 3099, 1973).

[2] = molecular target: T2, cloned human kappa opioid receptor (Homo sapiens, UniProt P41145); test: GTP-γ-S binding assay (SPA), antagonist mode, kappa; conditions: functional antagonist potency; membranes with cloned human kappa receptor; agonist U69593 300 nM; Cheng-Prusoff
T2 construct: expressed in transfected cells
T2 sequence (P41145 whole entry): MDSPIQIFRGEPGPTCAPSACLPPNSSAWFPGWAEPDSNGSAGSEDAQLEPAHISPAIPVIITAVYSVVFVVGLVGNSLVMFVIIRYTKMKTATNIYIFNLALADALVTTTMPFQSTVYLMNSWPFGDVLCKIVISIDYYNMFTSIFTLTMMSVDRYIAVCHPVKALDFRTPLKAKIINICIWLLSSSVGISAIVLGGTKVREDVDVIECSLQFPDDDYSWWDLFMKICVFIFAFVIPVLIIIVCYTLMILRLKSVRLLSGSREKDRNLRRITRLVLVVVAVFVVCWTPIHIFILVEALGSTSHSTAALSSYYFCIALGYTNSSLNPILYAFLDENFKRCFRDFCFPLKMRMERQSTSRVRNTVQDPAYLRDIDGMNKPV
Description: as §1, §2

[3] = molecular target: T3, cloned human delta opioid receptor (Homo sapiens, UniProt P41143); test: GTP-γ-S binding assay (SPA), antagonist mode, delta; conditions: functional antagonist potency; membranes with cloned human delta receptor; agonist DPDPE 30 nM; Cheng-Prusoff
T3 construct: expressed in transfected cells
T3 sequence (P41143 whole entry): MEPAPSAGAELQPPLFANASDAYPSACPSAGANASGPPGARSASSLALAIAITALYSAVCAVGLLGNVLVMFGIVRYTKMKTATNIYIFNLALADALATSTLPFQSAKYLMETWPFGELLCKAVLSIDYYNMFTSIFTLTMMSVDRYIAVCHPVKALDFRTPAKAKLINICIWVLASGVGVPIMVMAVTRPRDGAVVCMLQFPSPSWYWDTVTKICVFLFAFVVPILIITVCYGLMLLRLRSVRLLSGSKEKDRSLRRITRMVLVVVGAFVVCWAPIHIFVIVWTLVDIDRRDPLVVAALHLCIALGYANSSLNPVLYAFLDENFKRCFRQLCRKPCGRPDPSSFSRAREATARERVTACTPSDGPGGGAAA
Description: as §1, §2

T1 sequence (P35372 whole entry): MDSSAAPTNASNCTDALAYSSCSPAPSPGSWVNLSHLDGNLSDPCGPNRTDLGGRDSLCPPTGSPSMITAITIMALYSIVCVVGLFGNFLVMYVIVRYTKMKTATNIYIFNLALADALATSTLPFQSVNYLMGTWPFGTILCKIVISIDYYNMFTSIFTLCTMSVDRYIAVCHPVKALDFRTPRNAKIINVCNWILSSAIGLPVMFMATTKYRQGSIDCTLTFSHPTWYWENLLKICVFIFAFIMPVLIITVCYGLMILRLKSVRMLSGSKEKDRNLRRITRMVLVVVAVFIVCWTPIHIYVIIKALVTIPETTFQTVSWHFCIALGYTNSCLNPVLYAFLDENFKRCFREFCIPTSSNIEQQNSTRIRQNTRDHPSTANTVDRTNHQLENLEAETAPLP

Row | Structure (SMILES) | Kb [1] | Kb [2] | Kb [3]
1 | CCCCCCNCc1ccc2c(c1)CCc1cc(C(N)=O)ccc1O2 [Example 6, 8-Hexylaminomethyl-10,11-dihydro-dibenzo[b,f]oxepine-2-carboxylic acid amide] | 0.7 nM | 4.4 nM | 10.3 nM
2 | NC(=O)c1ccc2c(c1)CCc1cc(CNCCC3CCOCC3)ccc1O2 [Example 12, 8-{[2-(Tetrahydro-pyran-4-yl)-ethylamino]-methyl}-10,11-dihydro-dibenzo[b,f]oxepine-2-carboxylic acid amide] | 0.7 nM | 2.2 nM | 2.1 nM
3 | NC(=O)c1ccc2c(c1)CCc1cc(CNCCC3CCCC3)ccc1O2 [Example 14, 8-[(2-Cyclopentyl-ethylamino)-methyl]-10,11-dihydro-dibenzo[b,f]oxepine-2-carboxylic acid amide] | 0.6 nM | 8.6 nM | 7 nM
4 | CC(C)CCCNCc1ccc2c(c1)CCc1cc(C(N)=O)ccc1O2 [Example 3, 8-[(4-Methyl-pentylamino)-methyl]-10,11-dihydro-dibenzo[b,f]oxepine-2-carboxylic acid amide] | 0.8 nM | 6.5 nM | 7.4 nM
5 | CC(C)CNCc1ccc2c(c1)CCc1cc(C(N)=O)ccc1O2 [Example 2, 8-(Isobutylamino-methyl)-10,11-dihydro-dibenzo[b,f]oxepine-2-carboxylic acid amide] | 12 nM | 29.8 nM | –
6 | CCOCCCNCc1ccc2c(c1)CCc1cc(C(N)=O)ccc1O2 [Example 17, 8-[(3-Ethoxy-propylamino)-methyl]-10,11-dihydro-dibenzo[b,f]oxepine-2-carboxylic acid amide] | 2.1 nM | 25.7 nM | 26.7 nM
7 | CC(C)CCNCc1ccc2c(c1)CCc1cc(C(N)=O)ccc1O2 [Example 1, 8-[(3-Methyl-butylamino)-methyl]-10,11-dihydro-dibenzo[b,f]oxepine-2-carboxilic acid amide] | 1.2 nM | 6.1 nM | 11 nM
8 | NC(=O)c1ccc2c(c1)CCc1cc(CNCCc3cccs3)ccc1O2 [Example 4, 8-[(2-Thiophen-2-yl-ethylamino)-methyl]-10,11-dihydro-dibenzo[b,f]oxepine-2-carboxylic acid amide] | 0.9 nM | 12.6 nM | 7.1 nM
9 | CC(C)(C)CCNCc1ccc2c(c1)CCc1cc(C(N)=O)ccc1O2 [Example 13, 8-[(3,3-Dimethyl-butylamino)-methyl]-10,11-dihydro-dibenzo[b,f]oxepine-2-carboxylic acid amide] | 4 nM | 12.1 nM | 14.4 nM
10 | CCCCCNCc1ccc2c(c1)CCc1cc(C(N)=O)ccc1O2 [Example 5, 8-Pentylaminomethyl-10,11-dihydro-dibenzo[b,f]oxepine-2-carboxylic acid amide] | 1.7 nM | 4.9 nM | –
